Results taken from paper PMC7316778 (Nature Communications, 2020).
Like-named read-outs stand apart in the source and are kept apart here.

Legend:
BMX = biological target: T1, BMX (Homo sapiens, UniProt P51813); assay: SelectScreen kinase assay
T1 sequence (P51813 1-675): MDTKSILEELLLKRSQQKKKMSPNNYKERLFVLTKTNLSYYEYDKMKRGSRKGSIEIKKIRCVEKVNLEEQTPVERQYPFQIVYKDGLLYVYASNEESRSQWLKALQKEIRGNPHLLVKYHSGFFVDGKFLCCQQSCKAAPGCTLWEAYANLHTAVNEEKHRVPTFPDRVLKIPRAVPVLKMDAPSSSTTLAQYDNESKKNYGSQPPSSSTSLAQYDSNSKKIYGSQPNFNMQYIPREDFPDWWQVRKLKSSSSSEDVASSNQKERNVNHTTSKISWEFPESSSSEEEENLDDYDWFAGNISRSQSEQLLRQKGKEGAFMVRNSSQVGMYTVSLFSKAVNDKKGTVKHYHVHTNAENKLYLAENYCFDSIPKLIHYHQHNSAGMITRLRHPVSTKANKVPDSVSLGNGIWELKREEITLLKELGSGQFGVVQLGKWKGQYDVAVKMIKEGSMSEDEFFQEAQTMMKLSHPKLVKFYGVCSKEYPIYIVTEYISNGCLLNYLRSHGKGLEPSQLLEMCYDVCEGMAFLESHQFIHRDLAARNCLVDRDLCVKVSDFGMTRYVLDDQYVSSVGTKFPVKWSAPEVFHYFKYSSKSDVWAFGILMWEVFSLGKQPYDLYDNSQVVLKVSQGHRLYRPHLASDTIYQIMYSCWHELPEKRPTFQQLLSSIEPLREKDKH
Experimental: (§1) Selectivity profiling assays were performed by the Invitrogen SelectScreen™ Services. […] The concentration of ATP was selected to be equal to the KM, unless indicated otherwise.

CAMK1 (CaMK1) = CAMK1 (CaMK1) (Homo sapiens, UniProt Q14012); assay: SelectScreen kinase assay; conditions: 1 h, 1 μM WEL028, 1 h preincubation
Experimental: as §1

CDK16 (PCTK1)/cyclin Y = CDK16 (PCTK1)/cyclin Y (Homo sapiens, UniProt Q00536); assay: SelectScreen kinase assay
CDK16 (PCTK1)/cyclin Y, sequence (Q00536 whole entry): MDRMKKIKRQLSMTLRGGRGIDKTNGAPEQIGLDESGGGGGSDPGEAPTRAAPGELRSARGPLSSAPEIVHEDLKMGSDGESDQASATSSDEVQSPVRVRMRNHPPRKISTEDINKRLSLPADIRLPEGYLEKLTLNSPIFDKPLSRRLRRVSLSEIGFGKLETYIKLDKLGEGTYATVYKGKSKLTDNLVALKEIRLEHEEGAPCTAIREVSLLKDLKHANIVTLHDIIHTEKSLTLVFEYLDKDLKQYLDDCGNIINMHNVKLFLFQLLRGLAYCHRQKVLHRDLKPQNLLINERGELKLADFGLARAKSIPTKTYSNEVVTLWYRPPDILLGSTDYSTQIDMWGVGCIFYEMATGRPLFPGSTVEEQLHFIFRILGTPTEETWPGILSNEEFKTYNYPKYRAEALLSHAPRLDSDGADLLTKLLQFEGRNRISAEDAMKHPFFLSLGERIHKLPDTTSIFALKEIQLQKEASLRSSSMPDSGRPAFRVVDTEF
CDK16 (PCTK1)/cyclin Y, sequence (Q8ND76 whole entry partner): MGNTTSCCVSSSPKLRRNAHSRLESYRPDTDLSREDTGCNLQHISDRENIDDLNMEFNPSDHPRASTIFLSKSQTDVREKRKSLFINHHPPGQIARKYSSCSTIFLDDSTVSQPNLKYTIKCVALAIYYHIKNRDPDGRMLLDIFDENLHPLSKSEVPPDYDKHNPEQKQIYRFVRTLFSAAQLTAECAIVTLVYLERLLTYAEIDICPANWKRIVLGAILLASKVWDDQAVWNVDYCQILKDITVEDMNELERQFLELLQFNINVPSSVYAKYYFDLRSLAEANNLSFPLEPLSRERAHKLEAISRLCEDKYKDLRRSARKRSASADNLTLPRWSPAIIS
Experimental: as §1

FGFR2 = FGFR2 (Homo sapiens, UniProt P21802); assay: SelectScreen kinase assay; conditions: for Inhibition at 1 µM (%): FGFR2, ZLYTE, ATP Km app
FGFR2, sequence (P21802 22-821): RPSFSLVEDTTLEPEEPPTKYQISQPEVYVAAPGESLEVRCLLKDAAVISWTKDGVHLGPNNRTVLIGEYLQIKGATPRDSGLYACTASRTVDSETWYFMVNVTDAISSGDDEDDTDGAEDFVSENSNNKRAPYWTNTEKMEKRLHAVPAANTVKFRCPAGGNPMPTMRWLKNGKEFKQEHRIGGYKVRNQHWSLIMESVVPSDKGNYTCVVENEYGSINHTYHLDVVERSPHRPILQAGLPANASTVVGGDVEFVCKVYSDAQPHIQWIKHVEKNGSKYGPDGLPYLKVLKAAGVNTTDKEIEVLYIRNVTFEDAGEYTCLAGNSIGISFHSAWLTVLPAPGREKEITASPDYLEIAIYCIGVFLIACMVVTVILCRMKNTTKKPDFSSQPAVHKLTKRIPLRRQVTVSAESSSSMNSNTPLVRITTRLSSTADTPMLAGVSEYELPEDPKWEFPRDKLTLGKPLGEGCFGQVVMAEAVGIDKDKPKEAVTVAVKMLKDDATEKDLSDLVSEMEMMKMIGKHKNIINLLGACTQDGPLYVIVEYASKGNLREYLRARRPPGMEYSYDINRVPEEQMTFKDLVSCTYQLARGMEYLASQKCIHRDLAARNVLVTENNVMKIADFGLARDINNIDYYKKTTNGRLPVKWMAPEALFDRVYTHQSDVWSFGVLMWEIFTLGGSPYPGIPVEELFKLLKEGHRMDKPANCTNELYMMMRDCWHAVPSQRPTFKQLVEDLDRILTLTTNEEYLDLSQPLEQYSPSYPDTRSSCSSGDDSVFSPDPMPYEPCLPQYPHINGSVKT
Experimental: as §1

LRRK2 = LRRK2 (Homo sapiens, UniProt Q5S007); assay: SelectScreen kinase assay
LRRK2, sequence (Q5S007 970-2527 limits assumed, species assumed): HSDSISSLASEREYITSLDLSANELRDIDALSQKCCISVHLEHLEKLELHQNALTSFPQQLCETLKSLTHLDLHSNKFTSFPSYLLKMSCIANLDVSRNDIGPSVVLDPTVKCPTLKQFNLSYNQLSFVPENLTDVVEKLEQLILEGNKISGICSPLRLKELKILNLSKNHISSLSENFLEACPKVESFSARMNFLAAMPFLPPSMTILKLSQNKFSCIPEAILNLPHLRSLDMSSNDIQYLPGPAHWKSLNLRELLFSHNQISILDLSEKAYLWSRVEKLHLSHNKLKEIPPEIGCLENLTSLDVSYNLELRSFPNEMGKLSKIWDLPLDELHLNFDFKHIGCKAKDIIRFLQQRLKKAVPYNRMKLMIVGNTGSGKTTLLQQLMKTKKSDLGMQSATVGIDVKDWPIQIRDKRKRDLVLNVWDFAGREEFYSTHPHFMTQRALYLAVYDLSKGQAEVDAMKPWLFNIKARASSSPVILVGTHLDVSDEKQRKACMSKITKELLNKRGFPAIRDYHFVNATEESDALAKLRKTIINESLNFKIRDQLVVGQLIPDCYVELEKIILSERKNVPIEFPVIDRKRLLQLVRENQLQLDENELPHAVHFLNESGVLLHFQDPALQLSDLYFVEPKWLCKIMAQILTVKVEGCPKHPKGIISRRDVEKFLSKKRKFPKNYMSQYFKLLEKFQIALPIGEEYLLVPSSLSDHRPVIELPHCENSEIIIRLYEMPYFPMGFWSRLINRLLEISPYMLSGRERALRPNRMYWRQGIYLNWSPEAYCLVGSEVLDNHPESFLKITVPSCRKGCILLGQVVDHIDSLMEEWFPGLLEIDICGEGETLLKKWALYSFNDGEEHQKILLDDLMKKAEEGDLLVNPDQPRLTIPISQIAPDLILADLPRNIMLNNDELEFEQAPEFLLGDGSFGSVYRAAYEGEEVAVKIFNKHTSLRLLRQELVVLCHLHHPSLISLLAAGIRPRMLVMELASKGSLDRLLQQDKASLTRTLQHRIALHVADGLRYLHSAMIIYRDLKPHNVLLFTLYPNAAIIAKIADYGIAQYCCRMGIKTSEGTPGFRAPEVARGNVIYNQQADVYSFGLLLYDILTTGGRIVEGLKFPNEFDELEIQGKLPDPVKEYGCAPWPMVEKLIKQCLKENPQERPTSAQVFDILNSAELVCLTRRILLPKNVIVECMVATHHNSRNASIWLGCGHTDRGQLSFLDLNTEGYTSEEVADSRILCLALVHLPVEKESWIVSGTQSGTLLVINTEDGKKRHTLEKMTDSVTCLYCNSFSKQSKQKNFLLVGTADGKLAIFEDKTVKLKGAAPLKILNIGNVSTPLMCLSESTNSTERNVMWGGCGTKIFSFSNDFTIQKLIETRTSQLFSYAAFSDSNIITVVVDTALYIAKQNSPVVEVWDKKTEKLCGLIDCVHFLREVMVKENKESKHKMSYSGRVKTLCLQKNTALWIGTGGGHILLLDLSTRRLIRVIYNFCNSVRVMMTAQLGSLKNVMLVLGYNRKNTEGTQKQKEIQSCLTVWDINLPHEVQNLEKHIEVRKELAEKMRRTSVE
Experimental: as §1

LTK (TYK1) = LTK (TYK1) (Homo sapiens, UniProt P29376); assay: SelectScreen kinase assay
LTK (TYK1), sequence (P29376 17-864): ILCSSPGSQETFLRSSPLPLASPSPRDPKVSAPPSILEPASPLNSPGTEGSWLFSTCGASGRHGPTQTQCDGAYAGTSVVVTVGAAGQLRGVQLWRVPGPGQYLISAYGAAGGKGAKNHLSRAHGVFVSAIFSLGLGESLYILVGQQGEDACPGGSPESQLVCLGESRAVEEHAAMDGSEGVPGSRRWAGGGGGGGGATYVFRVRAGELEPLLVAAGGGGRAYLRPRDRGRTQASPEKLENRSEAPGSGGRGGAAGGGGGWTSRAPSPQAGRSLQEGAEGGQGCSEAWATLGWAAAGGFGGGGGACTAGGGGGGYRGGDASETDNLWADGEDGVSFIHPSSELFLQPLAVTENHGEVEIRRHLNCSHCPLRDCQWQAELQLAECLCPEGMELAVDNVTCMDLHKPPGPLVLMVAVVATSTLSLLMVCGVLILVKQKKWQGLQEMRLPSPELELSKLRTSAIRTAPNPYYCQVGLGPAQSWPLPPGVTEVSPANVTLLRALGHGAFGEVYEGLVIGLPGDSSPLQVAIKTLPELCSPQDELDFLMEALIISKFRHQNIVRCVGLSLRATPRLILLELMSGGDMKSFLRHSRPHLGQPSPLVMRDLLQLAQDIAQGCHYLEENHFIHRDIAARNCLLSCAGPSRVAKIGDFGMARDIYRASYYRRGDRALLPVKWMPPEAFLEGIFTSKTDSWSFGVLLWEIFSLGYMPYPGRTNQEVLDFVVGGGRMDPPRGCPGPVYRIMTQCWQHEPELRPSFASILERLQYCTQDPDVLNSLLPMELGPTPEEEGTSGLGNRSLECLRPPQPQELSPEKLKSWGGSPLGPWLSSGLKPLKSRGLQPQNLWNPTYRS
Experimental: as §1

MLCK (MLCK2) = biological target: T2, MLCK (MLCK2) (Homo sapiens, UniProt Q32MK0); assay: SelectScreen kinase assay
T2 sequence (Q32MK0 1-819): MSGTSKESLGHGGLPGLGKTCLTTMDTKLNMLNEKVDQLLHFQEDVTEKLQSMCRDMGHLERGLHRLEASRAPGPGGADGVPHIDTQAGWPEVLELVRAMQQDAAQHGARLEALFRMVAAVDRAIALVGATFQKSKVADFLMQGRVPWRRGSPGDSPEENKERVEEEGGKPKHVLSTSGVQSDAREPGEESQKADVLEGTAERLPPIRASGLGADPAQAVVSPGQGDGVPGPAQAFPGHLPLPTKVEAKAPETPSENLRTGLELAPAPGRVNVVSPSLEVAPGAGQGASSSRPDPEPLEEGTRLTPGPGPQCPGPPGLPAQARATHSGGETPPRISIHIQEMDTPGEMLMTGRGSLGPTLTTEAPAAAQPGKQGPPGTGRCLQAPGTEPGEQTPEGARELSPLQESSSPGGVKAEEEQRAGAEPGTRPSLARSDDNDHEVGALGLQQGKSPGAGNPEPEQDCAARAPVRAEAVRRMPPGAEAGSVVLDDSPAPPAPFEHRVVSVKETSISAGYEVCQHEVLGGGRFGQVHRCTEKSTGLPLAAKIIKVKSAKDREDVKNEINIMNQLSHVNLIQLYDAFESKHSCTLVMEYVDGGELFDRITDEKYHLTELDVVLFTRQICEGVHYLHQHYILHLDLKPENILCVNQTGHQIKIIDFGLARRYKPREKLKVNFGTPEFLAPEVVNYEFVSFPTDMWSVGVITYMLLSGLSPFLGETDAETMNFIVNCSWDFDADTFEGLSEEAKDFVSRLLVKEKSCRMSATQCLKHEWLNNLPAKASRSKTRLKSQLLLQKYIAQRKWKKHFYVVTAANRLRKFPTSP
Experimental: as §1

SRMS (Srm) = SRMS (Srm) (Homo sapiens, UniProt Q9H3Y6); assay: SelectScreen kinase assay
SRMS (Srm), sequence (Q9H3Y6 whole entry): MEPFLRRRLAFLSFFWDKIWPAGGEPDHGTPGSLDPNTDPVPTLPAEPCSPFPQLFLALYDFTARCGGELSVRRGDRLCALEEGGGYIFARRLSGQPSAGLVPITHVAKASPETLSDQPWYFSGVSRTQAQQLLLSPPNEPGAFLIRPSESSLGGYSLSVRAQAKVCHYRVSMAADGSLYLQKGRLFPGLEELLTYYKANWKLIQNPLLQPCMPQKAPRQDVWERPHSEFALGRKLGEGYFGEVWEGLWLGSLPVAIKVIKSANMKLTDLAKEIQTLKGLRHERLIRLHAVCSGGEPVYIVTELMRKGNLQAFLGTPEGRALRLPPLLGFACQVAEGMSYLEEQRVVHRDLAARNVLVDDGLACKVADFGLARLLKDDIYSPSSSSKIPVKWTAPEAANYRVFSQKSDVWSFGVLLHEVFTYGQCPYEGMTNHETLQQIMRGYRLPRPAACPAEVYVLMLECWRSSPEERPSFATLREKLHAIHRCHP
Experimental: as §1

STK16 (PKL12) = STK16 (PKL12) (Homo sapiens, UniProt O75716); assay: SelectScreen kinase assay
STK16 (PKL12), sequence (O75716 whole entry, the tested form may be a part): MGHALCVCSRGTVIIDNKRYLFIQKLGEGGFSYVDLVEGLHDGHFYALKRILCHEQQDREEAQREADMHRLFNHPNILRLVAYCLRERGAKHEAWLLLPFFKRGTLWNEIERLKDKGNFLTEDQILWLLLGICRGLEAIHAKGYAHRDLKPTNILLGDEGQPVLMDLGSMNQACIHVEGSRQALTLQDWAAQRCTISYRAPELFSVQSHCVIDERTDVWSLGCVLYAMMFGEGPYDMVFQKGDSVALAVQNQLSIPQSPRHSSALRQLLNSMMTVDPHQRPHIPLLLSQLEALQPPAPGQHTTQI
Experimental: as §1

FES^S700C = FES^S700C (Homo sapiens, UniProt P07332, S700C); assay: In vitro TR-FRET kinase assay; format: biochemical; parameters: human FES cDNA encoding residues 448–822 or human FER cDNA encoding residues 448–820 was amplified by PCR; made in house; host or cells: E. coli BL21(DE3), co-expressing YopH phosphatase; conditions: IC50 on FES^WT divided by IC50 on FES^S700C
[1] = 1 h, 1 μM WEL028, 1 h preincubation

C#CCOc1ccc(Nc2ncc(Cl)c(Nc3ccccc3NC(=O)C=C)n2)c(OC)c1 [Compound 6]
inhibition at 1 µM (BMX; [1]): 16%
Inhibition at 1 µM (%) (BMX; BMX, 1 µM, ZLYTE, ATP Km app, listed as WEL028, 1 µM): 18%
inhibition at 1 µM (BMX; read-out: Inhibition at 1 µM (%), BMX, 1 µM, ZLYTE, ATP Km app): 14%
inhibition at 1 µM (CAMK1 (CaMK1)): 6%
inhibition at 1 µM (CDK16 (PCTK1)/cyclin Y; [1]): 0%
Inhibition at 1 µM (%) (CDK16 (PCTK1)/cyclin Y; CDK16 (PCTK1)/cyclin Y, 1 µM, LanthaScreen Binding, listed as WEL028, 1 µM): -1%
inhibition at 1 µM (FGFR2; [1]): 7%
Inhibition at 1 µM (%) (FGFR2): 11%
Inhibition at 1 µM (%) (FGFR2; listed as WEL028, 1 µM): 4%
IC50 (LRRK2): 50.1 nM
inhibition at 1 µM (LRRK2; 1 h): 94%
Apparent fold selectivity (LRRK2; IC50 on that kinase divided by IC50 on FES^S700C): 12 fold
inhibition at 1 µM (LRRK2; read-out: Inhibition at 1 µM (%)): 94%
inhibition at 1 µM (LTK (TYK1); [1]): 43%
Inhibition at 1 µM (%) (LTK (TYK1); LTK (TYK1), 1 µM, ZLYTE, ATP Km app, listed as WEL028, 1 µM): 37%
inhibition at 1 µM (LTK (TYK1); read-out: Inhibition at 1 µM (%), LTK (TYK1), 1 µM, ZLYTE, ATP Km app): 48%
inhibition at 1 µM (MLCK (MLCK2); [1]): 9%
Inhibition at 1 µM (%) (MLCK (MLCK2); MLCK (MLCK2), 1 µM, LanthaScreen Binding, listed as WEL028, 1 µM): 8%
inhibition at 1 µM (MLCK (MLCK2); read-out: Inhibition at 1 µM (%), MLCK (MLCK2), 1 µM, LanthaScreen Binding): 9%
Inhibition at 1 µM (%) (SRMS (Srm); 1 µM, ZLYTE, ATP Km app, listed as WEL028, 1 µM): 8%
inhibition at 1 µM (SRMS (Srm); [1]): 7%
inhibition at 1 µM (SRMS (Srm); read-out: Inhibition at 1 µM (%), 1 µM, ZLYTE, ATP Km app): 6%
Inhibition at 1 µM (%) (STK16 (PKL12); 1 µM, LanthaScreen Binding, listed as WEL028, 1 µM): 29%
inhibition at 1 µM (STK16 (PKL12); [1]): 32%
inhibition at 1 µM (STK16 (PKL12); read-out: Inhibition at 1 µM (%), 1 µM, LanthaScreen Binding): 35%
Apparent fold selectivity (FES^S700C): 232 fold
